From US20240336573A1, “COMPOUND FOR THE TREATMENT AND PROPHYLAXIS OF INFECTIOUS DISEASES” (Eberhard Karls Universität Tübingen Medizinische Fakultät, priority 2021, published 2024)

Legend:
E. coli = experiment: Vancomycin MIC in presence of compound (strain not stated); type: cell-based; details: in presence of 100 μM compound
Experimental: To test for the sensitizer properties of the compounds, the inventors then performed a sensitizer MIC assay. To this end, E. coli BW25113, E. coli JW2496-3, and E. coli ATCC 25922 inocula were prepared as described above. Each well of a 96-well plate was prefilled with a fixed compound concentration of 100 μM and a dilution series of Vancomycin ranging from […]. A sensitizing effect was defined as reduction of the MIC value of Vancomycin of the respective test strain.

[1] = Solubility estimate based on turbidity (OD600 nm); type: physicochemical
Text: The evaluation of these shelf derivatives included an estimate of their solubility based on the turbidity (OD600 nm) as well as their activity in the primary assay (2.1), their KD (2.2), their MIC reduction of Vancomycin (2.5) and their cytotoxicity (2.6) (Table 4).

[2] = system: E. coli BW25113, E. coli JW2496-3, E. coli ATCC 25922; experiment: Minimal inhibitory concentration assay (bactericidal/bacteriostatic assessment); type: cell-based; details: dilution series 100-1.7 μM
Text: The intended effect of a SurA inhibitor should be the induction of a disturbance of the outer membrane composition resulting in an increased susceptibility to antibiotic treatment. Of note, Vancomycin is typically not used to treat infections with Gram-negative bacteria, because it is excluded by the OM and not efficient at concentrations that could be achieved in patients. However, at appropriate dosing in vitro it can be used to detect outer membrane defects. For determining a potential sensitizing effect of Vancomycin treatment, the inventors first tested whether the compounds at hand were bactericidal per se. Therefore, the inventors performed a minimal inhibitory concentration (MIC) assay. To this end, 5 ml overnight cultures of E. coli BW25113 (Keio-Collection reference strain), E. coli JW2496-3 (Keio-Collection single gene knockout for bamB, which suffers from decreased outer membrane integrity) and E. coli ATCC 25922 (a reference strain recommended for antibiotic susceptibility testing) were grown in Mueller Hinton Broth, Cation adjusted (MHB-II). The next day, the OD was adjusted to obtain 1*10^8 CFU/ml using fresh MHB-II. Next, this bacterial solution was diluted 1:100 into 20 ml fresh MHB-II. 50 μl of this bacteria solution were then transferred into each well of a 96-well plate prefilled with 50 μl MHB-II supplemented with the desired compounds. The test plates for the bactericidal assessment contained dilution series of the compounds from 100-1.7 μM. Plates were sealed with a gas permeable membrane and incubated o/n at 37° C. in a humid chamber without shaking. After o/n incubation, bacterial growth was quantified by measuring the optical density at 600 nm wavelength in a multiplate reader. Compounds showing no growth inhibition at 100 μM were considered non-bactericidal. Of note, the bactericidal effect of Vancomycin was assessed similarly for each test strain using Vancomycin concentrations ranging from […]. This was done to identify a Vancomycin concentration at which the strains just managed to survive.

SMILES | MIC (Vanco, mg/ml) (E. coli) [mg/mL] | Solubility (in words) [1] | Bacteriostatic MIC Assay Result [2]
CN(C)c1ccc(-c2nc3cc(NC(=O)Cn4cc5ccccc5n4)ccc3[nH]2)cc1 [QHL-24] | 0.256 | poor solubility | –
NC(=O)c1nc(Cc2ccc(OCC(=O)O)cc2)[nH]c1NC(=O)c1ccc(-c2ccccc2)cc1 [Compound 2a, 2-(4-((5-([1,1′-biphenyl]-4-carboxamido)-4-carbamoyl-1H-imidazol-2-yl)methyl)phenoxy)acetic acid] | – | – | non-bacteriostatic
